Series [1] deals with T1, Coagulation factor XI (Homo sapiens, UniProt P03951). Put plainly: Inhibition of human F11a using D-Leu-Pro-Arg*Rh110-D-Pro as substrate preincubated for 60 mins followed by substrate addition and measured after 60 mins by fluorescence assay.
For a further series, the target named is Complement factor D (Homo sapiens, UniProt P00746). The series is classed as single protein.
A further series deals with Plasma kallikrein (Homo sapiens, UniProt P03952). The series is classed as single protein.
The target of series [2] is T1, Coagulation factor XI. The experiment in a line: Inhibition of […] human plasma F11a catalytic domain expressed in Escherichia coli strain BL21(DE3) using D-Leu-Pro-Arg*Rh110-D-Pro as substrate preincubated for 60 mins followed by substrate addition and measured after 60 mins by fluorescence assay.
A further series has as its target T2, Coagulation factor VII (Homo sapiens, UniProt P08709).
T2 sequence (P08709 whole entry): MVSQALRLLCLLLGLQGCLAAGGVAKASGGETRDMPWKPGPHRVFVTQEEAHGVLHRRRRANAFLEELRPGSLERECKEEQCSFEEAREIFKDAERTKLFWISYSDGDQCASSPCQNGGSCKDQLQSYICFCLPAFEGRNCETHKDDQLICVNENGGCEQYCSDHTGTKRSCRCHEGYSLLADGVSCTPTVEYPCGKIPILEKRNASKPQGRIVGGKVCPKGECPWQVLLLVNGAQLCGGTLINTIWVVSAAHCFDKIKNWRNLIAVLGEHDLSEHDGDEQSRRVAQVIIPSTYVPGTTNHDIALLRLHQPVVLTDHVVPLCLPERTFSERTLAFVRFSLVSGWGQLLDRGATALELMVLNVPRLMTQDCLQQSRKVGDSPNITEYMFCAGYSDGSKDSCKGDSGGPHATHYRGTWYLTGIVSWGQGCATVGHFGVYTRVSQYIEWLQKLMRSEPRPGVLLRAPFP
In kind it is single protein.

Another series concerns the target Coagulation factor IX (Homo sapiens, UniProt P00740). In kind it is single protein.
For another series, the target named is Coagulation factor X (Homo sapiens, UniProt P00742). The series is classed as single protein.
A further series concerns the target Prothrombin (Homo sapiens, UniProt P00734). The series is classed as single protein.
Series [3] addresses Tissue-type plasminogen activator (Homo sapiens, UniProt P00750). In kind it is single protein.
Another series has as its target Plasminogen (Homo sapiens, UniProt P00747). In kind it is single protein.
In series [4] the target is T3, Urokinase-type plasminogen activator (Homo sapiens, UniProt P00749). The series is classed as ADME.
The next series is filed under the species Homo sapiens. The experiment in a line: Selectivity ratio of IC50 for inhibition of human complement FD to IC50 for inhibition of human F11a.
The nature of series [5]: Dose normalized Cmax in C57BL/6 mouse at 1 mg/kg, iv bolus injection or 3 mg/kg, po by LC-MS/MS analysis. In kind it is ADME, organism-based. The conditions noted are these: in vivo.
Series [6] in a line: Clearance in C57BL/6 mouse at 1 mg/kg, iv bolus injection or 3 mg/kg, po by LC-MS/MS analysis. The conditions noted are these: in vivo. In kind it is ADME, organism-based.
Series [7] can be described thus: Volume of distribution at steady state in C57BL/6 mouse at 1 mg/kg, iv bolus injection or 3 mg/kg, po by LC-MS/MS analysis. In kind it is ADME, organism-based. The conditions noted are these: in vivo, read-out: Vdss.
Series [8] in a line: Terminal half life in C57BL/6 mouse at 1 mg/kg, iv bolus injection or 3 mg/kg, po by LC-MS/MS analysis. In kind it is ADME, organism-based. The conditions noted are these: in vivo, read-out: beta t1/2 (converted).
Series [9] can be described thus: Dose normalized AUC in C57BL/6 mouse at 3 mg/kg, po by LC-MS/MS analysis. In kind it is ADME, organism-based. Particulars: in vivo.
A short description of series [10]: Oral bioavailability in C57BL/6 mouse at 3 mg/kg by LC-MS/MS analysis. In kind it is ADME, organism-based. The conditions noted are these: in vivo.
The nature of series [11]: in vitro. The conditions noted are these: human, Caco-2.
The nature of series [12]: in vitro. Particulars: human, Caco-2. The source holds these as a separate data set.
A short description of a further series: physchem. The conditions noted are these: aqueous buffer, pH 6.8.
The nature of series [13]: in vitro. Particulars: human, Caco-2. This is another data set of the same source.
The conditions of series [14]: human, caco-2; BLD = below limit of detection.
The target of series [15] is T3, Urokinase-type plasminogen activator. The series is classed as single protein.
The subject of series [16] is Plasma. Put plainly: Anticoagulant activity in human plasma assessed as concentration required to double the activated partial thromboplastin time incubated for 3 mins followed by calcium chloride addition by aPTT-s reagent based automated coagulometric method. In kind it is functional.
The subject of series [17] is Plasma. Put plainly: Effect on coagulation in human plasma assessed as concentration required to double the prothrombin time by thromboplastin-DS reagent based automated coagulometric method. The series is classed as ADME, cell-free.

Values after ≈ are worked out from the molar mass of the structure shown.

Sequence of Coagulation factor X (P00742 41-179 limits assumed): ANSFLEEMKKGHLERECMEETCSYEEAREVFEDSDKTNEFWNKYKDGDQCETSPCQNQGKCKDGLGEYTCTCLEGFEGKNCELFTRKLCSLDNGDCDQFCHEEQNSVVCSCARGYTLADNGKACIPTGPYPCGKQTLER
Sequence of Coagulation factor X (P00742 235-488 limits assumed): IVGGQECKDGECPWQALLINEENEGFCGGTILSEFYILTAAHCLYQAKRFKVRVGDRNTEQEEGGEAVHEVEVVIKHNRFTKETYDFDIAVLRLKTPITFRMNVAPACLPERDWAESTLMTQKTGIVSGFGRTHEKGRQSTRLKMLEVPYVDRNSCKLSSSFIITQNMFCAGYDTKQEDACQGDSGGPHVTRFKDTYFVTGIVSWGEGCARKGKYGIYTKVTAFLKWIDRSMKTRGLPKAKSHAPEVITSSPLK
T1 sequence (P03951 19-387 limits assumed): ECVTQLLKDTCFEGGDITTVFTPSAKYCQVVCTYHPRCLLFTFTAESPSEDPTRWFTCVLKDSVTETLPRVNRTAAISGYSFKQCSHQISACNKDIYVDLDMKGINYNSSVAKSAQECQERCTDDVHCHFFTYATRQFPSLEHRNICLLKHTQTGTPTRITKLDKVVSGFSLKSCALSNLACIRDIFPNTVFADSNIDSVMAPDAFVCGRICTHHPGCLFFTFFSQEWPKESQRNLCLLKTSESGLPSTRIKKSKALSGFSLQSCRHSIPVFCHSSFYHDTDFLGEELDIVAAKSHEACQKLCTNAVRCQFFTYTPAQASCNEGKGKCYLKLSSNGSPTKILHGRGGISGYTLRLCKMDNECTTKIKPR
T1 sequence (P03951 388-625 limits assumed): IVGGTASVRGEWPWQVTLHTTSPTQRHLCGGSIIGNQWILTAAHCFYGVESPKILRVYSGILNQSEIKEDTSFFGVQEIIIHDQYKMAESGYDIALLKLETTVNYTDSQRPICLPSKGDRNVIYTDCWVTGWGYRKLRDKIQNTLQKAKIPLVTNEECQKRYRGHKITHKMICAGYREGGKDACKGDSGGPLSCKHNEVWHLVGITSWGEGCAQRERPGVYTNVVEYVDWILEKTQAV
Sequence of Plasminogen (P00747 97-580 limits assumed): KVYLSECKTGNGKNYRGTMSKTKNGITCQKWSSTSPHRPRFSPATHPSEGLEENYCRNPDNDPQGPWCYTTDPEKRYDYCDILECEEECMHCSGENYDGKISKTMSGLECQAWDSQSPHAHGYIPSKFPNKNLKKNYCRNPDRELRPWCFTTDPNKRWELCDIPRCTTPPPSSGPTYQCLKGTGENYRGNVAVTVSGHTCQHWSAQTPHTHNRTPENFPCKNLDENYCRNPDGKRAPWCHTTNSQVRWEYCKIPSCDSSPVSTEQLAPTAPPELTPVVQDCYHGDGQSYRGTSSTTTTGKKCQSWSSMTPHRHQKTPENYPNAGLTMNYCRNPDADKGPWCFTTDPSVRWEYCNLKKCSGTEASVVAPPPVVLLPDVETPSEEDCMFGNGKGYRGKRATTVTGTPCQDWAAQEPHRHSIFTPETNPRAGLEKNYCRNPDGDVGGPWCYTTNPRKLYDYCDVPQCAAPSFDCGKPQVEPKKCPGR
Sequence of Plasminogen (P00747 581-810 limits assumed): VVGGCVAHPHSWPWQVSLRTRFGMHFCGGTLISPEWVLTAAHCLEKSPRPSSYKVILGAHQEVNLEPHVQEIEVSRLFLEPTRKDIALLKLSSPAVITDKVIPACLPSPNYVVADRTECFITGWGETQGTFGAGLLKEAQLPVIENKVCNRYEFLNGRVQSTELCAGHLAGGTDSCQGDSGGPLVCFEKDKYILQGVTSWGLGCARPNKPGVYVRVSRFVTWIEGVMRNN
Sequence of Tissue-type plasminogen activator (P00750 whole entry): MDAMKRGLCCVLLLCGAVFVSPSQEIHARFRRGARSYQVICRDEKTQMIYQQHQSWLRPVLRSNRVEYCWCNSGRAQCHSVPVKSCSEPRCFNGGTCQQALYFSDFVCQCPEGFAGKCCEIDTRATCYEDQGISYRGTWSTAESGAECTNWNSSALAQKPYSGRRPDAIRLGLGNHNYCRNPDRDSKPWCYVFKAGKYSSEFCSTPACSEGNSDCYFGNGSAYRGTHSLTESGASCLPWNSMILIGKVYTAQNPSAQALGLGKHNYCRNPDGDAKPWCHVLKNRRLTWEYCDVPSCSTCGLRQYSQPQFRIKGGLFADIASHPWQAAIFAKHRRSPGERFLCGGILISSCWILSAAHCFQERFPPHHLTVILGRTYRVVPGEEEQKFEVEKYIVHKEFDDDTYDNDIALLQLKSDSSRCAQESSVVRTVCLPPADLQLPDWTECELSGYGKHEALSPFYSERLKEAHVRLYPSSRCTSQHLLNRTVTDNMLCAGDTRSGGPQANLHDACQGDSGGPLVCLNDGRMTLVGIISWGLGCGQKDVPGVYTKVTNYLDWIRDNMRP
Sequence of Coagulation factor IX (P00740 47-191 limits assumed): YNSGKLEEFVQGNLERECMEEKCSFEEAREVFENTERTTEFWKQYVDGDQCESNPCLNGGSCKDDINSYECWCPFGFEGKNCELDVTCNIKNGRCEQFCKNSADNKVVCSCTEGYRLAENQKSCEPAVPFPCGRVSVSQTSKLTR
Sequence of Coagulation factor IX (P00740 227-461 limits assumed): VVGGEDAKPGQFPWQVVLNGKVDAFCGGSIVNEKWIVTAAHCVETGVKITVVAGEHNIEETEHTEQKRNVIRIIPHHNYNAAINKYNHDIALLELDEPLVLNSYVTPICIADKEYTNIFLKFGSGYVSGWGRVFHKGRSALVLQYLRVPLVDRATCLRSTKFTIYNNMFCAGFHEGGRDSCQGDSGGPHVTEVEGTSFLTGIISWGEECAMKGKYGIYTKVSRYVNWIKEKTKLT
Sequence of Plasma kallikrein (P03952 20-390 limits assumed): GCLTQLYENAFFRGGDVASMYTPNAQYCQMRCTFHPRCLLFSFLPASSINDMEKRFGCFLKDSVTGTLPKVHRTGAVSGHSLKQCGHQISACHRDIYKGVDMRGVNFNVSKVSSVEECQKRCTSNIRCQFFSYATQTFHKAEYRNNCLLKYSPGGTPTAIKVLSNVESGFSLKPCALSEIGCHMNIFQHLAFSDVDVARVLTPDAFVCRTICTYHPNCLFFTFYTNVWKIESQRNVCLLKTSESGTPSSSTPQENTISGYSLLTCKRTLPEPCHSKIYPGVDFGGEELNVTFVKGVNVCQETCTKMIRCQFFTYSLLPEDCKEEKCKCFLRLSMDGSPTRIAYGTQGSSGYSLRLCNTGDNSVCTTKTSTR
Sequence of Plasma kallikrein (P03952 391-638 limits assumed): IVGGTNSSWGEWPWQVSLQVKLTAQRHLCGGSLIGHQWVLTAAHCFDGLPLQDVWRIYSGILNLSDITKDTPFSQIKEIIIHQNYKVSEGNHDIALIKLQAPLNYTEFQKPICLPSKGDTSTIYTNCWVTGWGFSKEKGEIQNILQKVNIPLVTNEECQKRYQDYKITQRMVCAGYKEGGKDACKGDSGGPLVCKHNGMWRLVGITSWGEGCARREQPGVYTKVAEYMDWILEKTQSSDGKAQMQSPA
Sequence of Complement factor D (P00746 whole entry): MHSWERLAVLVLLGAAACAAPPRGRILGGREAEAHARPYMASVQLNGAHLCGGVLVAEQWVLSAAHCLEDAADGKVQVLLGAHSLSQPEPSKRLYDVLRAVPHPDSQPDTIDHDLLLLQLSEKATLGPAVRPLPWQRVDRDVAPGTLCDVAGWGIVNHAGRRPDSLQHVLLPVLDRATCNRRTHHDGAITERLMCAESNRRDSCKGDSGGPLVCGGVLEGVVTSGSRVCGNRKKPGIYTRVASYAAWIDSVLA

What is called IC50 is the point on the concentration scale where inhibition reaches its midpoint. Higher therefore signals weaker potency in that assay. In the case of `CC1(C)COc2c(COc3ccccc3CC(=O)O)cc(-c3ccc4c(c3)[C@H](N)CCO4)cc21`, the IC50 against Coagulation factor XI [1] came out at 6 nM; on Complement factor D it was 15000 nM; against Plasma kallikrein it was 4 nM; against Coagulation factor XI [2], 260 nM; on Coagulation factor VII, 75000 nM; against Coagulation factor IX it was 1600 nM. Further, the IC50 was determined as 4300 nM against Coagulation factor X; 860 nM on Prothrombin; 190 nM in [3]; 14000 nM at Plasminogen; 950 nM in [4]. Moreover, the Ratio IC50 in the series filed under Homo sapiens was 2500.
In general, bioavailability refers to dose-corrected exposure relative to a reference, in per cent. One may read the Papp A→B as the apparent permeability from the apical to the basolateral side of a cell layer. One may read the Papp B→A as how fast a substance crosses the layer from the basolateral side. One may read the solubility (thermodynamic) as solubility found after equilibrating the solid with the medium. As usually defined, the efflux ratio is the permeability from basolateral to apical divided by that in the opposite direction, in the common usage. Take `CC(C)(C#N)c1cc(COc2ccccc2CC(=O)O)cc(-c2ccc3c(c2)[C@H](N)CO3)c1`: the half-maximal inhibitory concentration (IC50) at Coagulation factor XI [1] was 4 nM; against Complement factor D it was 40 nM; against Plasma kallikrein, 2 nM; on Coagulation factor XI [2], 50 nM. The compound also showed a Cmax/dose in series [5] of 137 nM. This compound showed a clearance in series [6] of 55 mL/min/kg. The Vd in series [7] worked out at 0.7 L/kg. Moreover, the half-life in series [8] was 0.3 h. This compound also gave an AUC/dose in [9] of 171 nM·h. The compound also yielded a bioavailability in [10] of 25%. Also, the apparent permeability from apical to basolateral (Papp A→B) in “in vitro [11]” was 1.4 ×10⁻⁶ cm/s. The compound further gave a basolateral-to-apical permeability (Papp B→A) in “in vitro [12]” of 41 ×10⁻⁶ cm/s. This compound gave a thermodynamic solubility in “physchem” of 60 µM (≈ 26.6 µg/mL). Moreover, the efflux ratio in the series “in vitro [13]” came out at 30.
Consider `CC(C)(C(N)=O)c1cc(COc2ccccc2CC(=O)O)cc(-c2ccc3c(c2)[C@H](N)CO3)c1`, for which the concentration for half-maximal inhibition (IC50) against Coagulation factor XI [1] worked out at 9 nM; against Complement factor D, 320 nM; on Plasma kallikrein, 11 nM; at Coagulation factor XI [2], 67 nM. Also, the Ratio IC50 in the series filed under Homo sapiens came out at 80. Also, the Papp entry in series [14] was “Bld”. Further, the apparent permeability from basolateral to apical (Papp B→A) in the series “in vitro [12]” was found to be 4 ×10⁻⁶ cm/s. For the same compound, the solubility (thermodynamic) in the series “physchem” stood at 780 µM (≈ 359 µg/mL).
Consider `CC(C)c1cc(-c2ccc3c(c2)[C@H](N)CO3)cc(C(O)CN2CCc3cccc(C(=O)O)c32)c1` (mixture of isomers), for which the 50% inhibitory concentration (IC50) against Coagulation factor XI [1] worked out at 2 nM; against Complement factor D, 73600 nM; on Plasma kallikrein it was 2 nM; on Coagulation factor XI [2], 170 nM; against Coagulation factor VII it was 8750 nM; against Coagulation factor IX, 7860 nM. Also, the IC50 against Coagulation factor X worked out at 1710 nM; against Prothrombin, 6140 nM; in [3], 490 nM; at Plasminogen, 9580 nM; in series [15], 250 nM. In addition, the Ratio IC50 in the series listed under Homo sapiens is 30000.
`CC1(C)COc2c(COc3ccccc3CC(=O)O)cc(-c3ccc4c(c3)[C@H](N)CO4)cc21`: the IC50 was determined as 3 nM at Coagulation factor XI [1]; 50 nM at Complement factor D; 7 nM at Plasma kallikrein; 85 nM against Coagulation factor XI [2]; 7100 nM on Coagulation factor VII; 210 nM on Coagulation factor IX. The IC50 against Coagulation factor X worked out at 840 nM; against Prothrombin, 130 nM; in series [3] it was 100 nM; against Plasminogen it was 6300 nM; in series [4], 16 nM. Also, the Cmax/dose in [5] came out at 1126 nM. In series [6], this compound registered a clearance of 4 mL/min/kg. In series [7], the Vd amounted to 1 L/kg. The half-life in series [8] is 6.4 h. This compound also had an AUC/dose in [9] of 6525 nM·h. Also, the bioavailability in series [10] came to 61%. In the series filed under Homo sapiens, the Ratio IC50 was 17. Moreover, the 2aPTT in the series with Plasma [16] is 2.5 µM. Besides, the 2PT in the series with Plasma [17] was 19.8 µM. In “in vitro [11]”, this compound came in with a Papp A→B of 12 ×10⁻⁶ cm/s. The compound further yielded a Papp B→A in the series “in vitro [12]” of 12 ×10⁻⁶ cm/s. In the series “physchem”, the solubility (thermodynamic) was below 4 µM. Also, the efflux ratio in “in vitro [13]” was 1.
Consider `CC(C)c1cc(-c2ccc3c(c2)[C@H](N)CO3)cc([C@@H]2CNc3cccc(CC(=O)O)c3O2)c1`, for which the half-maximal inhibitory concentration (IC50) was below 0.7 nM on Coagulation factor XI [1]; 60 nM against Complement factor D; 1 nM on Plasma kallikrein; 10 nM at Coagulation factor XI [2]; 2000 nM against Coagulation factor VII; 30 nM against Coagulation factor IX. In addition, the IC50 is 220 nM against Coagulation factor X; 30 nM against Prothrombin; 50 nM in series [3]; 690 nM against Plasminogen; 20 nM in [15]. For the same compound, in the series on Plasma [16], the 2aPTT is 0.4 µM.

The values above are taken from ChEMBL document CHEMBL4619774 (J Med Chem, 2020).
